# Tested on: SEM cells
# Test: cell viability relative to DMSO control; higher = less cytotoxic
# Details: 48 h
# Summary of the method: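 Viability is expressed as a percentage of DMSO wells within each plate, and cell-free wells serve as background. Seeding densities in the 1536-well plates (5 μl) were 500 cells/well for NOMO1 or SEM leukemia cells and 1000 cells/well for P12-Ichikawa. Each line was adapted for at least four passages in each medium. Library compounds in DMSO were pin-dosed at 47 μM to 0.79 nM (11 points, threefold), and CellTiter-Glo One luminescence was read after 48 h at 37°C.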
# [1] = HPLM + 10% dialyzed FBS, 0.000781 µM
# [2] = HPLM + 10% dialyzed FBS, 0.00234 µM
# [3] = HPLM + 10% dialyzed FBS, 0.00702 µM
# [4] = HPLM + 10% dialyzed FBS, 0.0211 µM
# [5] = HPLM + 10% dialyzed FBS, 0.0632 µM
# [6] = HPLM + 10% dialyzed FBS, 0.19 µM
# [7] = HPLM + 10% dialyzed FBS, 0.569 µM
# [8] = HPLM + 10% dialyzed FBS, 1.71 µM
# [9] = HPLM + 10% dialyzed FBS, 5.12 µM
# [10] = HPLM + 10% dialyzed FBS, 15.4 µM
# [11] = HPLM + 10% dialyzed FBS, 46.1 µM
# [12] = RPMI 5 mM glucose + 10% FBS, 0.000781 µM
# [13] = RPMI 5 mM glucose + 10% FBS, 0.00234 µM
# [14] = RPMI 5 mM glucose + 10% FBS, 0.00702 µM
# [15] = RPMI 5 mM glucose + 10% FBS, 0.0211 µM
# [16] = RPMI 5 mM glucose + 10% FBS, 0.0632 µM
# [17] = RPMI 5 mM glucose + 10% FBS, 0.19 µM
# [18] = RPMI 5 mM glucose + 10% FBS, 0.569 µM
# [19] = RPMI 5 mM glucose + 10% FBS, 1.71 µM
# [20] = RPMI 5 mM glucose + 10% FBS, 5.12 µM
# [21] = RPMI 5 mM glucose + 10% FBS, 15.4 µM
# [22] = RPMI 5 mM glucose + 10% FBS, 46.1 µM
# [23] = RPMI 5 mM glucose + 10% dialyzed FBS, 0.000781 µM
# [24] = RPMI 5 mM glucose + 10% dialyzed FBS, 0.00234 µM
# [25] = RPMI 5 mM glucose + 10% dialyzed FBS, 0.00702 µM
# [26] = RPMI 5 mM glucose + 10% dialyzed FBS, 0.0211 µM
# [27] = RPMI 5 mM glucose + 10% dialyzed FBS, 0.0632 µM
# [28] = RPMI 5 mM glucose + 10% dialyzed FBS, 0.19 µM
# [29] = RPMI 5 mM glucose + 10% dialyzed FBS, 0.569 µM
# [30] = RPMI 5 mM glucose + 10% dialyzed FBS, 1.71 µM
# [31] = RPMI 5 mM glucose + 10% dialyzed FBS, 5.12 µM
# [32] = RPMI 5 mM glucose + 10% dialyzed FBS, 15.4 µM
# [33] = RPMI 5 mM glucose + 10% dialyzed FBS, 46.1 µM
SMILES,cell viability [1] [%],cell viability [2] [%],cell viability [3] [%],cell viability [4] [%],cell viability [5] [%],cell viability [6] [%],cell viability [7] [%],cell viability [8] [%],cell viability [9] [%],cell viability [10] [%],cell viability [11] [%],cell viability [12] [%],cell viability [13] [%],cell viability [14] [%],cell viability [15] [%],cell viability [16] [%],cell viability [17] [%],cell viability [18] [%],cell viability [19] [%],cell viability [20] [%],cell viability [21] [%],cell viability [22] [%],cell viability [23] [%],cell viability [24] [%],cell viability [25] [%],cell viability [26] [%],cell viability [27] [%],cell viability [28] [%],cell viability [29] [%],cell viability [30] [%],cell viability [31] [%],cell viability [32] [%],cell viability [33] [%]
COC1(C[S+]([O-])c2ccccc2)CCN(CCc2c[nH]c3ccc(F)cc23)CC1 (stereo not given),119,119,122,104,123,111,109,100,122,110,93.5,120,109,117,106,119,113,116,111,117,110,95.6,,,,,,,,,,,
Cc1ncc([N+](=O)[O-])n1CCO,100,94,104,104,112,105,103,111,118,100,108,104,118,103,111,118,109,109,117,121,105,104,107,109,123,122,114,146,127,115,122,124,130
C[S+]([O-])c1ccc(-c2nc(-c3ccc(F)cc3)c(-c3ccncc3)[nH]2)cc1 (stereo not given),83.2,84.2,91.8,84,102,81.5,86.9,62,40.9,4.09,2.22,103,106,102,105,107,79.3,75.1,41,21.9,3.29,2.41,92.6,99.7,89.8,97.8,98.1,77,79.2,59.4,26.1,3.71,2.23
CN1C(=O)/C=C(/NCCN(CCO)CCCC2=CC=C(C=C2)[N+]([O-])=O)N(C)C1=O,104,113,121,114,108,136,121,119,120,108,66.6,112,111,131,118,109,138,133,123,95.2,105,55,103,123,135,111,144,138,136,137,121,107,50.8
Nc1nc(OCc2ccccc2)c2nc[nH]c2n1,99.9,107,114,112,112,124,114,115,115,105,127,82,101,84.5,92.3,103,97.5,89.4,78.4,93.8,76.7,88.9,90.2,102,109,103,104,112,98.6,86.6,94.5,76.1,103
Cc1cc(O)c2c(c1)C(=O)c1cc(O)cc(O)c1C2=O,102,108,110,115,100,108,98.9,99.4,106,99.4,86.7,101,99.3,101,101,120,128,111,102,112,120,86.5,92.7,106,114,117,112,106,106,106,123,103,103
CC(C)[C@H](CO)Nc1nc(Nc2cccc(Cl)c2)c2ncn(C(C)C)c2n1,88.8,88.2,97.6,101,110,99.4,69.8,49.4,3.37,1.22,2.26,86.7,112,101,95.4,71,86.4,21.6,4.3,1.34,0.473,1.1,98.6,107,91.5,104,106,93.5,35.7,18.9,1.89,0.704,1.74
OC1=CC=C(C=C1)\C2=C\C(=O)C3=C(O2)C=C(O)C=C3O,106,111,115,112,113,108,108,94.4,106,113,96.3,,,,,,,,,,,,92,121,119,109,111,108,108,94.9,93.6,98,64.2
COC1=CC=C(C=C1)C2CC(=N/N2C3=CC=C(C=C3)[S+](N)([O-])=O)\C4=CC=CC=C4 (stereo not given),83.3,91.2,91.4,104,110,69.2,86.3,51.3,30.9,4.3,2.47,104,86.1,107,104,107,43.4,72.9,37.8,14.8,2.74,1.62,87.3,74,84.3,95.4,100,60.1,63.3,45.9,19,2.63,2.05
NC\1=N\C(=O)N(\C=C1)[C@H]\2[C@H](O)[C@H](O)C(=C2F)\CO,77.6,90.2,85,103,92.2,97.6,108,96.3,52.5,28.8,16.8,118,116,130,148,113,118,128,117,74.1,74.5,57.9,90.2,95.3,95.1,103,117,109,92.2,51.8,23.1,19,15.3
CC(C)(C)NC(=O)[C@H]1CC[C@H]2[C@@H]3CC[C@H]4NC(=O)\C=C/[C@]4(C)[C@H]3CC[C@]12C,88.1,89.3,98.7,92,95.8,94.4,101,88.3,102,104,101,91.9,92.4,104,95.5,97.3,90.2,91.5,99.7,94,106,90.9,95.4,87.6,91.7,94.2,104,99.8,104,115,111,99.2,91.2
Cc1cc(Cl)ccc1OCCCC(=O)NO,105,96.7,103,117,130,120,118,101,89,34,12.8,107,101,102,122,112,117,115,124,91.7,43.9,10.9,98.8,96.2,93.5,99.4,97.1,106,105,89.5,76.5,26.7,10.2
N\C1=N\C2=C(N=C[N]2COC(CO)CO)C(=O)N1,103,98.8,96.8,111,97,104,108,108,104,82.4,3.99,83.9,78.2,92.2,93.2,94.9,96.3,88.2,87.4,76,64.8,2.7,94.6,98.7,105,108,106,108,113,103,115,94.7,4.17
C=CCn1c(=O)c2cnc(Nc3ccc(N4CCN(C)CC4)cc3)nc2n1-c1cccc(C(C)(C)O)n1,117,118,127,110,98.6,81.4,61.4,28.3,25.7,24.5,29.4,,,,,,,,,,,,111,119,135,93.5,90.8,64.6,52.7,26.3,15.7,19.3,21.8
CC(=O)O[C@@]12CO[C@@H]1C[C@H](O)[C@]3(C)[C@@H]2[C@H](OC(=O)C4=CC=CC=C4)[C@]5(O)C[C@H](OC(=O)C(O)[C@@H](NC(=O)OC(C)(C)C)C6=CC=CC=C6)C(=C(/[C@@H](O)C3=O)C5(C)C)/C (stereo not given in full),23.5,25.1,25.4,26,26.5,27.2,26.1,23.3,22.7,18.6,5.16,13.7,22,21.2,18.1,20.1,20.7,18.1,16.7,12.1,9.57,4.28,23.4,21.1,23,21.2,21.4,19.5,18.9,16.7,16.5,10.5,2.56
C#C[C@]1(O)CC[C@H]2[C@@H]3CCc4cc(OC)ccc4[C@H]3CC[C@@]21C,115,108,114,119,122,114,110,107,40.3,111,107,119,114,120,127,126,125,120,130,109,145,109,110,111,113,125,120,110,107,134,106,122,97.7
